Test results reported in patent publication US7893299B2, “Interleukin-1 and tumor necrosis factor-αmodulators; syntheses of such modulators and methods of using such modulators” (Nereus Pharmaceuticals, Inc., priority 2005, dated 2011).
Where two headings read alike, the source gives them in different places.

How the values were obtained:
Panc1 and HS766T = assay: TRAIL resistance of human pancreatic cancer cell lines; type: cell-based
From the text: (§1) Novel diterpene inhibitors of NFκB derived from acanthoic acid (NPI-1342 (Formula IIB-a1) and NPI-1387; compound 24 under scheme 4 above) show measurable effects in human pancreatic cancer cell lines in vitro. Seven of the nine cell lines were moderately sensitive to apoptosis induced by death receptor ligand Tumor Necrosis Factor (TNF) related apoptosis-inducing ligand (TRAIL). […] Specific silencing of NFkB/p65 expression mimicked these effects. Furthermore, combination treatment of Salinosporamide A and either NPI-1342 or NPI-1387 led to induction of apoptosis as measured by PI FACS analysis. Specifically, levels of DNA fragmentation increased from 4% to 50% in HS766T cells and from 4% to 52% in Panc1 cells. The inhibitory effects of NPI-1342, NPI-1387 on NFκB were evaluated by Electromobility Shift Assays and confirmed by confocal microscopy.

Panc1 cells = assay: apoptosis by PI FACS analysis, Panc1; type: cell-based, human; conditions: combination treatment with Salinosporamide A, increased from 4%
From the text: as §1

HS766T cells = assay: apoptosis by PI FACS analysis, HS766T; type: cell-based, human; conditions: combination treatment with Salinosporamide A, increased from 4%
From the text: as §1

[1] = mice, cited from earlier work; for toxicity (in words): mice and rats
IL-6 or IFN-γ production = conditions: under the same conditions; cited from earlier work
[2] = test system: TNF-α and IL-1 production; conditions: approximately 0.1 to approximately 1.0 microgram/ml for 48 hours; cited from earlier work
[3] = rat, in vivo; cited from earlier work
[4] = test system: silicosis (chronic lung inflammation) and cirrhosis (liver inflammation and hepatic fibrosis); conditions: mice with silicosis and cirrhosis; cited from earlier work

| Compound | TRAIL resistance (Panc1 and HS766T) | levels of DNA fragmentation (Panc1 cells) | levels of DNA fragmentation (HS766T cells) | LD ([1]; orally) | toxicity (in words) [1] | toxicity (in words) ([1]; listed as Compound 1) | production of IL-6 or IFN-γ (IL-6 or IFN-γ production) | inhibition of the TNF-α and IL-1 production [2] | minimum lethal dose (MLD) [3] | histologic analysis: fibrotic granulomas and cirrotic liver cells [4] |
| --- | --- | --- | --- | --- | --- | --- | --- | --- | --- | --- |
| C=C[C@@]1(C)CCC=C2[C@H]1CC[C@@H]1[C@](C)(C(=O)NC3CCCCC3)CCC[C@@]21C (stereo in doubt) [Formula (IIB-A1), N-Cyclohexylamide Derivative of TTL] | reversed TRAIL resistance | 52% | 50% |  |  |  |  |  |  |  |
| C=C[C@@]1(C)CC=C2[C@@H](CC[C@@H]3[C@](C)(C(=O)O)CCC[C@@]23C)C1 [Formula (I), acanthoic acid] |  |  |  | > 300 mg/100 g of body weight | minimal toxicity | very little toxicity | not affected | approximately 90% | 1000 mg/kg | substantial reduction of fibrotic granulomas and a remarkable recovery of the cirrotic liver cells |
